Results taken from patent publication US20230053540A1, “TREATMENT OF LIVER INJURY” (Massachusetts Institute of Technology, priority 2019, published 2023).

Tested on: hepatocytes
Experiment: Seq-Well scRNA-Seq of hepatocytes after APAP overdose (signature scores, DEG vs untreated)
Type: in vivo, mouse
Settings: cluster A6 (APAP 6 hr)

## CC(=O)Nc1ccc(O)cc1 [APAP, acetaminophen]
  Iigp1 pct.1: 0.78
  Il1b avg_logFC: 0.7365
  Il1b pct.1: 0.236
  Il1r1 avg_logFC: 0.845
  Il1r1 pct.1: 0.683
  Insig2 avg_logFC: 0.6834
  Insig2 pct.1: 0.854
  Iqgap1 avg_logFC: 0.4345
  Iqgap1 pct.1: 0.162
  Itgb2 avg_logFC: 0.2628
  Itgb2 pct.1: 0.105
  Itih2 avg_logFC: 0.3109
  Itih2 pct.1: 0.893
  Jak1 avg_logFC: 0.4696
  Jak1 pct.1: 0.554
  Jmjd1c avg_logFC: 0.5262
  Jmjd1c pct.1: 0.47
  Klf6 avg_logFC: 0.6123
  Klf6 pct.1: 0.382
  Krt8 avg_logFC: 1.204
  Krt8 pct.1: 0.826
  Krt18 avg_logFC: 1.118
  Krt18 pct.1: 0.864
  Laptm5 avg_logFC: 0.3169
  Laptm5 pct.1: 0.124
  Lars2 avg_logFC: 0.5887
  Lars2 pct.1: 1
  Lgmn avg_logFC: 0.4368
  Lgmn pct.1: 0.246
  Lmo4 avg_logFC: 0.2923
  Lmo4 pct.1: 0.308
  Lpin2 avg_logFC: 0.5227
  Lpin2 pct.1: 0.745
  Lrrc58 avg_logFC: 0.9243
  Lrrc58 pct.1: 0.711
  Lyst avg_logFC: 0.3767
  Lyst pct.1: 0.31
  Lyz2 avg_logFC: 0.6523
  Lyz2 pct.1: 0.234
  Maff avg_logFC: 0.3314
  Maff pct.1: 0.224
  Malat1 avg_logFC: 1.108
  Malat1 pct.1: 0.871
  Map2k3 avg_logFC: 0.3952
  Map2k3 pct.1: 0.427
  Mat1a avg_logFC: 0.3317
  Mat1a pct.1: 0.986
  Mat2a avg_logFC: 0.4693
  Mat2a pct.1: 0.487
  Mdn1 avg_logFC: 0.2931
  Mdn1 pct.1: 0.251
  Mfsd2a avg_logFC: 0.4232
  Mfsd2a pct.1: 0.465
  Mmp8 avg_logFC: 0.3585
  Mmp8 pct.1: 0.136
  Mmp14 avg_logFC: 0.2594
  Mmp14 pct.1: 0.253
  Mrap avg_logFC: 0.8261
  Mrap pct.1: 0.606
  Mrc1 avg_logFC: 0.3063
  Mrc1 pct.1: 0.131
  Msn avg_logFC: 0.251
  Msn pct.1: 0.105
  Mt1 avg_logFC: 0.9315
  Mt1 pct.1: 0.981
  Mt2 avg_logFC: 0.6647
  Mt2 pct.1: 0.938
  Mthfd2 avg_logFC: 0.26
  Mthfd2 pct.1: 0.205
  Myh9 avg_logFC: 0.8661
  Myh9 pct.1: 0.718
  Myl12a avg_logFC: 0.3937
  Myl12a pct.1: 0.461
  Myo1e avg_logFC: 0.4916
  Myo1e pct.1: 0.475
  Ncl avg_logFC: 0.4292
  Ncl pct.1: 0.69
  Neat1 avg_logFC: 0.6234
  Neat1 pct.1: 0.31
  Nid1 avg_logFC: 0.3315
  Nid1 pct.1: 0.229
  Nolc1 avg_logFC: 0.4084
  Nolc1 pct.1: 0.363
  Nop56 avg_logFC: 0.2507
  Nop56 pct.1: 0.282
  Nop58 avg_logFC: 0.5859
  Nop58 pct.1: 0.492
  Phc2 avg_logFC: 0.3092
  Phc2 pct.1: 0.284
  Picalm avg_logFC: 0.6425
  Picalm pct.1: 0.647
  Pigr avg_logFC: 0.2627
  Pigr pct.1: 0.947
  Pla2g7 avg_logFC: 0.2737
  Pla2g7 pct.1: 0.119
  Plek avg_logFC: 0.3031
  Plek pct.1: 0.11
  Plin2 avg_logFC: 1.276
  Plin2 pct.1: 0.943
  Plscr1 avg_logFC: 0.4343
  Plscr1 pct.1: 0.329
  Ppan avg_logFC: 0.2655
  Ppan pct.1: 0.255
  Ppl avg_logFC: 0.8287
  Ppl pct.1: 0.47
  Psat1 avg_logFC: 0.3001
  Psat1 pct.1: 0.229
  Ptprc avg_logFC: 0.4072
  Ptprc pct.1: 0.153
  Rad54l2 avg_logFC: 0.3366
  Rad54l2 pct.1: 0.325
  Ranbp2 avg_logFC: 0.4808
  Ranbp2 pct.1: 0.566
  Rcan1 avg_logFC: 0.5727
  Rcan1 pct.1: 0.425
  Rell1 avg_logFC: 0.577
  Rell1 pct.1: 0.375
  Retnlg avg_logFC: 0.3746
  Retnlg pct.1: 0.129
  Retsat avg_logFC: 0.4801
  Retsat pct.1: 0.845
  Rgs2 avg_logFC: 0.3802
  Rgs2 pct.1: 0.138
  Rnf144a avg_logFC: 0.3119
  Rnf144a pct.1: 0.177
  Rock2 avg_logFC: 0.5525
  Rock2 pct.1: 0.425
  Rora avg_logFC: 0.5514
  Rora pct.1: 0.549
  S100a8 avg_logFC: 1.116
  S100a8 pct.1: 0.353
  S100a9 avg_logFC: 1.336
  S100a9 pct.1: 0.399
  Sat1 avg_logFC: 0.6622
  Sat1 pct.1: 0.47
  Sdad1 avg_logFC: 0.2844
  Sdad1 pct.1: 0.289
  Sdc3 avg_logFC: 0.318
  Sdc3 pct.1: 0.103
  Sdc4 avg_logFC: 0.4415
  Sdc4 pct.1: 0.909
  Serpina3m avg_logFC: 0.6067
  Serpina3m pct.1: 0.85
  Slc16a6 avg_logFC: 0.864
  Slc16a6 pct.1: 0.47
  Slc39a14 avg_logFC: 0.6721
  Slc39a14 pct.1: 0.678
  Son avg_logFC: 0.4342
  Son pct.1: 0.601
  Spred1 avg_logFC: 0.3351
  Spred1 pct.1: 0.308
  Sqstm1 avg_logFC: 0.6817
  Sqstm1 pct.1: 0.859
  Srgn avg_logFC: 0.926
  Srgn pct.1: 0.284
  Srxn1 avg_logFC: 1.874
  Srxn1 pct.1: 0.821
  St3gal1 avg_logFC: 0.4344
  St3gal1 pct.1: 0.473
  Stat3 avg_logFC: 0.4846
  Stat3 pct.1: 0.604
  Stk17b avg_logFC: 0.2825
  Stk17b pct.1: 0.126
  Stk40 avg_logFC: 0.4875
  Stk40 pct.1: 0.382
  Tars avg_logFC: 0.4768
  Tars pct.1: 0.666
  Tatdn2 avg_logFC: 0.309
  Tatdn2 pct.1: 0.334
  Tbc1d15 avg_logFC: 0.42
  Tbc1d15 pct.1: 0.461
  Tcerg1 avg_logFC: 0.3358
  Tcerg1 pct.1: 0.305
  Tiparp avg_logFC: 0.427
  Tiparp pct.1: 0.346
  Tjp2 avg_logFC: 0.403
  Tjp2 pct.1: 0.332
  Tmem87b avg_logFC: 0.3486
  Tmem87b pct.1: 0.351
  Tmsb4x avg_logFC: 0.7051
  Tmsb4x pct.1: 0.332
  Tnfrsf1a avg_logFC: 0.4533
  Tnfrsf1a pct.1: 0.508
  Tnfrsf12a avg_logFC: 1.081
  Tnfrsf12a pct.1: 0.623
  Tra2a avg_logFC: 0.6917
  Tra2a pct.1: 0.337
  Trp53inp1 avg_logFC: 0.8389
  Trp53inp1 pct.1: 0.637
  Tsc22d2 avg_logFC: 0.3382
  Tsc22d2 pct.1: 0.353
  Tsku avg_logFC: 0.3206
  Tsku pct.1: 0.327
  Tsr1 avg_logFC: 0.314
  Tsr1 pct.1: 0.341
  Tubb2a avg_logFC: 0.7838
  Tubb2a pct.1: 0.618
  Tubb6 avg_logFC: 0.533
  Tubb6 pct.1: 0.368
  Txnrd1 pct.1: 0.838
  Tyrobp avg_logFC: 0.4431
  Tyrobp pct.1: 0.189
